Data on three molecules can be found in US12461089B2, “Olfactory receptor involved in the perception of musk fragrance and the use thereof” (ChemoSensoryX Biosciences SA, priority 2017, dated 2025).

For one assay, the target named is T1, OR5AN1 (Homo sapiens, UniProt Q8NGI8, E89G).
T1 construct: expressed in transfected cells; host or cells: HEK293T-RTP1A1/RTP2
T1 sequence (Q8NGI8 1-311 E89G): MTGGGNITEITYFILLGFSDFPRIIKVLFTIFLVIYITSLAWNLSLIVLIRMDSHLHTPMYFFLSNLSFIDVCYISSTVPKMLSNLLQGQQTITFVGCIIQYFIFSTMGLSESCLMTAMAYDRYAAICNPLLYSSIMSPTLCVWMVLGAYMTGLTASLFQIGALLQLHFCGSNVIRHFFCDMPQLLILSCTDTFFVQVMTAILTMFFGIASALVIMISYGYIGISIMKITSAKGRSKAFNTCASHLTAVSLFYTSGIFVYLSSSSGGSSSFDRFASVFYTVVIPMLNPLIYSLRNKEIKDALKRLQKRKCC
The assay can be described thus: Luciferase reporter concentration-response analysis on OR5AN1. It counts as cell-based. To be noted: for EC50: concentration-response analysis, luciferase reporter, values given as negative (log) numbers, Non Active = no activation after testing, read-out: calculated EC50, OR5AN1 (converted).

In the next assay the target is T2, OR11A1 (Homo sapiens, UniProt Q9GZK7).
T2 construct: expressed in transfected cells; host or cells: HEK293T-RTP1A1/RTP2
T2 sequence (Q9GZK7 1-315): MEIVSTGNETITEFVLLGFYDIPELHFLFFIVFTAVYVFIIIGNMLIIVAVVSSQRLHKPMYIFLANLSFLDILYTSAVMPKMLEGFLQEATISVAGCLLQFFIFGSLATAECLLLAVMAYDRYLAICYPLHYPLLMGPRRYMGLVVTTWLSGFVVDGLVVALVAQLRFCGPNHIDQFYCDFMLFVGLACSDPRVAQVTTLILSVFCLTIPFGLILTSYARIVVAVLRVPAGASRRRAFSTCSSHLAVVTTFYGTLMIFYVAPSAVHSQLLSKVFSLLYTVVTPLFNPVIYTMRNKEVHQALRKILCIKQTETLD
Description: Luciferase reporter concentration-response analysis on OR11A1. It counts as cell-based. For orientation: Reporter assays use an easily measured gene product as a stand-in for the process of interest.

Molecules are shown by their SMILES. pEC50: −log10 of the molar value. Like-named read-outs stand apart in the source and are kept apart here.

A word on the pEC50: it is the EC50 on a negative log10 scale, so that one unit is a factor of ten. Lower therefore signals a high EC50. Consider `Cc1c([N+](=O)[O-])c(C)c([N+](=O)[O-])c(C(C)(C)C)c1[N+](=O)[O-]` [Musk Xylene, 1-tert-butyl-3,5-dimethyl-2,4,6-trinitrobenzene], for which the pEC50 is 6.18 at OR5AN1 and 5.73 at OR11A1.

One may read the EC50 as the midpoint of the concentration-response curve. With `CC(=O)c1c(C)c([N+](=O)[O-])c(C(C)(C)C)c([N+](=O)[O-])c1C` [Musk Ketone, 4-tert-butyl-2,6-dimethyl-3,5-dinitroacetophenone], the EC50 at OR5AN1 is 0.288 µM.

Take `O=C1CCC/C=C\CCCCCCCCCC1` [Velvione]: the EC50 at OR5AN1 was 49 µM.
